For one data set, the target named is SARS-Cov-2 3CLpro (Severe acute respiratory syndrome coronavirus 2, UniProt P0DTD1). As to the kind of experiment: biochemical. The settings on record: Table A, class symbols.
Data set [1] has as its system human beta-coronavirus OC43. As to the kind of experiment: OC43 Coronavirus Assay in HeLa cells (antiviral, cytopathic effect, cell-titer-glo). It counts as cell-based. The settings on record: Table B, OC43 coronavirus in HeLa cells, read-out: EC50.
In data set [2] the test system is HeLa human cervical epithelial cells. As to the kind of experiment: Cytotoxicity in HeLa cells without addition of OC43 virus (in parallel). The settings on record: Table B; HeLa cells without OC43 virus, class symbols.
The test system of data set [3] is SARS-CoV-2 B.1.1.7 lineage. As to the kind of experiment: microbe, parasite or virus in culture. It is filed as cell-based. The settings on record: Table C, SARS-CoV-2 B.1.1.7 in A549-dual_ACE2_TMPRSS2 cells, read-out: A549-dual_ACE2_TMPRSS2 (EC50).
Data set [4] in a line: Toxicity testing in A549-dual_ACE2_TMPRSS2 cells without virus (MTS). The settings on record: human.
A short description of data set [5]: Cytotoxicity in HeLa cells without addition of OC43 virus (in parallel). As to conditions: human, HeLa cells, without OC43 virus.
Data set [6] has as its system A549-dual_ACE2_TMPRSS2 cells. As to the kind of experiment: Toxicity testing in A549-dual_ACE2_TMPRSS2 cells without virus (MTS). As to conditions: read-out: A549-dual_ACE2_TMPRSS2 (CC50); Table C; A549-dual_ACE2_TMPRSS2 cells without virus, class symbols.
The subject of data set [7] is A549-dual_ACE2_TMPRSS2 cells. As to conditions: human.
The nature of a further data set: in vitro. As to conditions: human.
Where [8] appears, read: Severe acute respiratory syndrome coronavirus 2, cells given as a bound.
Where [9] appears, read: Betacoronavirus 1, OC43, HeLa, class symbols.

pEC50, pIC50: −log10 of the molar value. Read-outs that look alike come from different tables or passages of the source.

Among the data in patent publication US20240199647A1, “ANTI-VIRAL COMPOUNDS” (Aligos Therapeutics, Inc., priority 2022, published 2024) are IC50, EC50 and CC50 values, retold here.

What is called pIC50 is −log10 of the IC50, conventionally taken in molar units. One may read the pEC50 as −log10 of the EC50, conventionally taken in molar units. Take `CC1NC(=O)[C@]2(C[C@@H](C#N)N(C(=O)[C@H](CC3CC3)N(C)C(=O)[C@H](CC3CC3)NC(=O)C(F)(F)F)C2)Oc2ccccc21` (single isomer, unassigned) [Compound 224, (S)—N—((S)-1-((2R,5R*,5'S)-5′-cyano-5-methyl-3-oxo-4,5-dihydro-3H-spiro[benzo[f][1,4]oxazepine-2,3′-pyrrolidin]-1′-yl)-3-cyclopropyl-1-oxopropan-2-yl)-3-cyclopropyl-N-methyl-2-(2,2,2-trifluoroacetamido)propanamide]: the negative logarithm of the IC50 (pIC50) on SARS-Cov-2 3CLpro (read-out: SARS-Cov-2 (IC50)) is more than 7.70. Further, the negative-log EC50 (pEC50) in data set [1] (class symbols) was more than 7.00. The CC50 in data set [2] is more than 10 µM.

Regarding `C[C@H](NC(=O)Oc1ccc(F)cc1)C(=O)N(C)[C@@H](CC1CC1)C(=O)N1C[C@@]2(C[C@H]1C#N)Oc1cc(F)cc(F)c1NC2=O` [Compound 119, 4-fluorophenyl ((S)-1-(((S)-1-((2R,5'S)-5′-cyano-5,7-difluoro-3-oxo-3,4-dihydrospiro[benzo[b][1,4]oxazine-2,3′-pyrrolidin]-1′-yl)-3-cyclopropyl-1-oxopropan-2-yl)(methyl)amino)-1-oxopropan-2-yl)carbamate], the pEC50 in data set [3] (setting [8]) was less than 6.00; in data set [1] (Betacoronavirus 1, class symbols), 6.00 to 7.00. For the same molecule, the CC50 in data set [4] was more than 1 µM. In addition, the negative logarithm of the IC50 (pIC50) against SARS-Cov-2 3CLpro (SARS-Cov-2 (IC50)) was more than 7.70. This molecule also registered a CC50 at 6 days in data set [5] of more than 10 µM.

Consider `Cc1nnn(C(CC2CC2)C(=O)N(C)[C@@H](CC2CC2)C(=O)N2C[C@@]3(C[C@H]2C#N)Oc2cc(F)cc(F)c2NC3=O)c1C` (relative stereo) [Compound 118, ((R*)—N—((S)-1-((2R,5'S)-5′-cyano-5,7-difluoro-3-oxo-3,4-dihydrospiro[benzo[b][1,4]oxazine-2,3′-pyrrolidin]-1′-yl)-3-cyclopropyl-1-oxopropan-2-yl)-3-cyclopropyl-2-(4,5-dimethyl-1H-1,2,3-triazol-1-yl)-N-methylpropanamide], for which the pEC50 in [3] (cells given as a bound) was less than 6.00; in data set [1] (cells given as a bound) it was less than 5.00. Moreover, the CC50 is more than 1 µM in [6] and more than 10 µM in data set [2]. Besides, the pIC50 on SARS-Cov-2 3CLpro (read-out: SARS-Cov-2 (IC50)) was 5.70 to 6.70.

With `C[C@H](NC(=O)C(F)(F)F)C(=O)N(C)[C@@H](CC1CC1)C(=O)N1C[C@]2(C[C@H]1C#N)C(=O)NCC2Oc1ccccc1` (stereo partly drawn) [Compound 94], the pEC50 in data set [3] (class symbols) was 6.00 to 7.00; in data set [1] (Betacoronavirus 1, OC43, HeLa, cells given as a bound), less than 5.00. Besides, the pIC50 on SARS-Cov-2 3CLpro (read-out: SARS-Cov-2 (IC50)) was 6.70 to 7.70. The CC50 in data set [7] is more than 1 µM; in data set [2], more than 10 µM.

With `CN(C(=O)[C@H](CC(C)(C)C)NC(=O)C(F)(F)F)[C@@H](CC1CC1)C(=O)N1C[C@@]2(C[C@H]1C#N)Oc1cccnc1NC2=O` [Compound 233], the values for the pEC50 in data set [3] (class symbols) and in data set [1] (class symbols) were more than 7.00 and 6.00 to 7.00, respectively. Also, the pIC50 on SARS-Cov-2 3CLpro (read-out: SARS-Cov-2 (IC50)) is more than 7.70. The values for the CC50 in data set [7] and in [2] were more than 1 µM and more than 10 µM, respectively.

Turning to `C[C@H](NC(=O)C(F)(F)F)C(=O)N(C)[C@H](C(=O)N1C[C@@]2(C[C@H]1C#N)Oc1cc(F)cc(F)c1NC2=O)[C@@H](C)OC(C)(C)C` [Compound 154], the negative logarithm of the EC50 (pEC50) is less than 6.00 in [3] (setting [8]) and 5.00 to 6.00 in [1] (setting [9]). Also, the pIC50 at SARS-Cov-2 3CLpro (read-out: SARS-Cov-2 (IC50)) is 5.70 to 6.70. For the same molecule, the CC50 at 6 days in [5] is more than 10 µM. This molecule also returned a CC50 in the data set “in vitro” of more than 1 µM.

Turning to `CC(C)C[C@@H](C(=O)N1C[C@]2(CCC3(CC3)NC2=O)C[C@H]1C#N)N(C)C(=O)[C@H](C)NC(=O)C(F)(F)F` [Compound 20], the pEC50 in data set [3] (Severe acute respiratory syndrome coronavirus 2, class symbols) was 6.00 to 7.00; in data set [1] (setting [9]), 5.00 to 6.00. Also, the negative logarithm of the IC50 (pIC50) at SARS-Cov-2 3CLpro (read-out: SARS-Cov-2 (IC50)) is 6.70 to 7.70. Besides, the CC50 at 6 days in [5] was more than 10 µM. The CC50 in the data set “in vitro” was more than 1 µM.
